In brackets after ≈: the same amount, converted by molar mass. Where two headings read alike, the source gives them in different places.

One data set concerns Candida duobushaemulonii. Put plainly: Planktonic growth, broth microdilution (CLSI M27-A3), MIC. In kind it is cell-based. The text has this:
(§1) Three clinical isolates of each species that form the C. haemulonii complex were used in this study: C. haemulonii (LIPCh4 from finger nail, LIPCh7 from toe nail, and LIPCh12 from blood), C. duobushaemulonii (LIPCh1 from finger nail, LIPCh6 from toe nail, and LIPCh8 from blood) and C. haemulonii var. vulnera (LIPCh5 from toe nail, LIPCh9 from urine, and LIPCh11 from blood) (Ramos et al., [2015]). The fungal isolates were identified by the automatized system VITEK® 2 and then characterized by ITS1-5.8S-ITS2 gene sequencing (Ramos et al., [2015]). Fungal cells were cultured in Sabouraud-dextrose medium under constant agitation (130 rpm) for 48 h at 37°C. Human lung adenocarcinoma A549 cells were maintained in culture flasks containing DMEM medium supplemented with 10% fetal bovine serum at 37°C in an atmosphere of 5% CO2.
(§2) Susceptibility profile assays were performed in accordance with the broth microdilution protocol described in the document M27-A3 published by the Clinical and Laboratory Standards Institutes (CLSI, [2008]). Samples of the test chelates were dissolved in DMSO (500 μL) and then serially diluted in a 96-well plate containing RPMI 1640 (Sigma-Aldrich, USA) to give the concentration range of 0.0625-32 mg/L. Aqueous solutions of the metal-free phen ligand and the simple metal salts, MnCl2, CuCl2, and AgNO3, were also screened over the same concentration range. Caspofungin (Sigma-Aldrich) was used as a classical antifungal agent able to block the growth of all clinical isolates of C. haemulonii species as previously reported by our research group (Ramos et al., [2015]). Water dilutions containing DMSO concentrations corresponding to those used to prepare the drug solutions were assessed in parallel. Untreated and compound-treated fungal cells were incubated at 37°C for 48 h and the minimal inhibitory concentration (MIC) was established as the lowest compound concentration where no cellular growth could be detected by visual inspection in accordance to the CLSI recommendation. The geometric mean of the MIC values (GM-MIC) of each compound against all the fungal isolates was calculated using the software, Microsoft Office Excel 2013.
(Dilution methods test growth across graded concentrations, often in twofold steps.)

The subject of data set [1] is Candida haemulonii var. vulnera. Described as above. In kind it is cell-based.
Text: as §1, §2

The test system of the next data set is Candida haemulonii. The data set is described as above. In kind it is cell-based.
Text: as §1, §2

In the next data set the test system is C. haemulonii complex. As to the kind of experiment: Planktonic growth, overall across all nine isolates. Type of data set: cell-based, Candida haemulonii complex. Conditions: for MIC / Overall GM-MIC: geometric mean across all nine strains; for MIC: read-out: Overall GM-MIC; for effect on planktonic fungal growth/viability (in words): nine clinical isolates, 0.0625-32 mg/L.
Text: as §1, §2

The subject of a further data set is A549 cells. As to the kind of experiment: Mammalian cell toxicity (MTT assay) and selectivity index. In kind it is cell-based, Human.
Text: as §1
The cytotoxicity was evaluated using the MTT [3-(4,5-dimethylthiazol-2-yl)-2,5-diphenyl tetrazolium bromide] (Sigma-Aldrich) assay (Mosmann, [1983]). A549 cells (10^4) were seeded into tissue culture plates (TPP, Switzerland) and cultured for 24 h at 37°C in a 5% CO2 in order to obtain cellular confluence. The wells were then washed twice with DMEM to remove non-adherent cells and the test compounds were added (in concentrations ranging from 0.0313 to 512 μg/mL) to plates containing DMEM, followed by a 48 h incubation period under the same conditions mentioned above. The cellular viability was evaluated by adding MTT to each well and incubating the plates in the dark for 3 h, allowing the viable cells containing active mitochondrial dehydrogenase enzymes to metabolize MTT-tetrazolium salt into purple formazan. The formazan crystals were then dissolved in DMSO (100 μL) and the absorbance (450 nm) measured using a Thermomax Molecular Device microplate reader. The concentration capable of reducing cellular viability by 50% (CC50) was calculated, and the selectivity index (SI) determined using the following equation: A549 CC50/C. haemulonii complex GM-MIC.
(Tetrazolium dyes change colour on reduction, which living cells bring about.)

Where [2] appears, read: isolate LIP Ch1, planktonic, 48 h, 37°C.
[3] abbreviates: geometric mean of three C. duobushaemulonii isolates.
[4] abbreviates: isolate LIP Ch6, planktonic, 48 h, 37°C.
[5] abbreviates: isolate LIP Ch8, planktonic, 48 h, 37°C.
[6] abbreviates: geometric mean of three C. haemulonii var. vulnera isolates.
Setting [7] is: isolate LIP Ch5, planktonic, 48 h, 37°C.
[8] abbreviates: isolate LIP Ch9, planktonic, 48 h, 37°C.
The mark [9] stands for this setting: isolate LIP Ch11, planktonic, 48 h, 37°C.
Where [10] appears, read: geometric mean of three C. haemulonii isolates.
Setting [11] is: isolate LIP Ch4, planktonic, 48 h, 37°C.
Setting [12] is: isolate LIP Ch7, planktonic, 48 h, 37°C.
[13] abbreviates: isolate LIP Ch12, planktonic, 48 h, 37°C.

`CC[C@H](C)C[C@H](C)CCCCCCCCC(=O)N[C@H]1C[C@@H](O)[C@@H](NCCN)NC(=O)[C@@H]2[C@@H](O)CCN2C(=O)[C@H]([C@H](O)CCN)NC(=O)[C@H]([C@H](O)[C@@H](O)c2ccc(O)cc2)NC(=O)[C@@H]2C[C@@H](O)CN2C(=O)[C@H]([C@@H](C)O)NC1=O` [Caspofungin, reference compound]: the minimal inhibitory concentration (MIC) in the data set with Candida duobushaemulonii (Candidozyma duobushaemuli, 48 h) stood at 0.125 µg/mL (≈ 0.114 µM); in the data set on Candida duobushaemulonii (Candidozyma duobushaemuli, 48 h, isolate LIP Ch6, planktonic, 48 h, 37°C, read-out: MIC), 0.25 µg/mL (≈ 0.229 µM); with Candida duobushaemulonii (Candidozyma duobushaemuli, geometric mean of three C. duobushaemulonii isolates, read-out: GM-MIC), 0.157 µg/mL (≈ 0.144 µM); with Candida duobushaemulonii (setting [2]), 0.125 µg/mL (≈ 0.114 µM); in data set [1] (Candidozyma haemuli, 48 h, isolate LIP Ch5, planktonic, 48 h, 37°C, read-out: MIC), 0.25 µg/mL (≈ 0.229 µM); in data set [1] (Candidozyma haemuli, 48 h, isolate LIP Ch9, planktonic, 48 h, 37°C, read-out: MIC), 0.25 µg/mL (≈ 0.229 µM). The minimum inhibitory concentration (MIC) in data set [1] (Candidozyma haemuli, 48 h, isolate LIP Ch11, planktonic, 48 h, 37°C, read-out: MIC) was determined as 0.5 µg/mL (≈ 0.457 µM); in data set [1] (Candidozyma haemuli, geometric mean of three C. haemulonii var. vulnera isolates, read-out: GM-MIC) it was 0.315 µg/mL (≈ 0.288 µM); in the data set with Candida haemulonii (Candidozyma haemuli, 48 h), 0.125 µg/mL (≈ 0.114 µM); in the data set on Candida haemulonii (Candidozyma haemuli, 48 h, isolate LIP Ch4, planktonic, 48 h, 37°C, read-out: MIC), 0.5 µg/mL (≈ 0.457 µM); in the data set with Candida haemulonii (Candidozyma haemuli, 48 h, isolate LIP Ch7, planktonic, 48 h, 37°C, read-out: MIC), 0.25 µg/mL (≈ 0.229 µM); with Candida haemulonii (Candidozyma haemuli, geometric mean of three C. haemulonii isolates, read-out: GM-MIC), 0.25 µg/mL (≈ 0.229 µM). Besides, the minimal inhibitory concentration (MIC) with C. haemulonii complex (Candidozyma haemuli, in μM) came out at 0.18 µM; with C. haemulonii complex (Candidozyma haemuli), 0.23 µg/mL.
With `[Cl][Cu][Cl]` [CuCl2, reference compound], the GM-MIC (in the data set on Candida duobushaemulonii (setting [3]); in data set [1] (setting [6]); in the data set with Candida haemulonii (setting [10])) was more than 32 µg/mL in each case. Further, the MIC (with Candida duobushaemulonii (setting [2]); in the data set with Candida duobushaemulonii (setting [4]); against Candida duobushaemulonii (setting [5]); in data set [1] (setting [7]); in data set [1] (setting [8]); in data set [1] (setting [9])) was more than 32 µg/mL in each case. For the same molecule, the MIC in the data set with Candida haemulonii (setting [11]), in the data set on Candida haemulonii (setting [12]) and against Candida haemulonii (setting [13]) was more than 32 µg/mL each time. Moreover, in the data set on C. haemulonii complex, the “Overall GM-MIC” value was more than 32 µg/mL. In the data set on C. haemulonii complex, the “effect on planktonic fungal growth/viability (in words)” value is “no appreciable effects”. Also, the “A549 (CC50)” value in the data set with A549 cells (MTT, 48 h incubation) amounted to 123.68 µg/mL.
With `[Cl][Mn][Cl]` [MnCl2, reference compound], the GM-MIC (in the data set on Candida duobushaemulonii (setting [3]); in data set [1] (setting [6]); in the data set on Candida haemulonii (setting [10])) was more than 32 µg/mL each time. The MIC (against Candida duobushaemulonii (setting [2]); in the data set with Candida duobushaemulonii (setting [4]); against Candida duobushaemulonii (setting [5]); in data set [1] (setting [7]); in data set [1] (setting [8]); in data set [1] (setting [9])) was more than 32 µg/mL in each case. The minimum inhibitory concentration (MIC) in the data set on Candida haemulonii (setting [11]), with Candida haemulonii (setting [12]) and in the data set with Candida haemulonii (setting [13]) was more than 32 µg/mL each time. Besides, the “Overall GM-MIC” value in the data set with C. haemulonii complex is more than 32 µg/mL. For the same molecule, the “effect on planktonic fungal growth/viability (in words)” value with C. haemulonii complex is on record as “no appreciable effects”. For the same molecule, in the data set on A549 cells (MTT, 48 h incubation), the “A549 (CC50)” value was 133.76 µg/mL.
For `O.O.O=C([O-])c1ccccc1C(=O)[O-].[Cu+2].c1cnc2c(c1)ccc1cccnc12` [compound 1, [Cu(ph)(phen)(H2O)2]], the GM-MIC (with Candida duobushaemulonii (setting [3]); in data set [1] (setting [6]); in the data set on Candida haemulonii (setting [10])) was more than 32 µg/mL throughout. The minimum inhibitory concentration (MIC) (against Candida duobushaemulonii (setting [2]); with Candida duobushaemulonii (setting [4]); against Candida duobushaemulonii (setting [5]); in data set [1] (setting [7]); in data set [1] (setting [8]); in data set [1] (setting [9])) was more than 32 µg/mL each time. Besides, the MIC is more than 32 µg/mL with Candida haemulonii (setting [11]), more than 32 µg/mL against Candida haemulonii (setting [12]), more than 32 µg/mL against Candida haemulonii (setting [13]) and more than 72 µM in the data set on C. haemulonii complex (in μM). Also, in the data set on C. haemulonii complex, the “Overall GM-MIC” value was more than 32 µg/mL. In the data set on A549 cells, the “A549 (CC50)” value is 0.53 µg/mL.
`CCO.CCO.O.O.O.O=C([O-])c1ccccc1C(=O)[O-].[Cu+2].c1cnc2c(c1)ccc1cccnc12.c1cnc2c(c1)ccc1cccnc12` [compound 2, [Cu(ph)(phen)2].3H2O.2EtOH]: the GM-MIC (in the data set on Candida duobushaemulonii (setting [3]); in data set [1] (setting [6]); in the data set on Candida haemulonii (setting [10])) was more than 32 µg/mL throughout. Further, the MIC (against Candida duobushaemulonii (setting [2]); in the data set with Candida duobushaemulonii (setting [4]); against Candida duobushaemulonii (setting [5]); in data set [1] (setting [7]); in data set [1] (setting [8]); in data set [1] (setting [9])) was more than 32 µg/mL each time. The MIC against Candida haemulonii (setting [11]) is more than 32 µg/mL; with Candida haemulonii (setting [12]) it was more than 32 µg/mL; in the data set on Candida haemulonii (setting [13]) it was more than 32 µg/mL; with C. haemulonii complex (in μM), more than 43.52 µM. Besides, the “Overall GM-MIC” value in the data set with C. haemulonii complex is more than 32 µg/mL. Moreover, the “A549 (CC50)” value with A549 cells worked out at 1.93 µg/mL.
Take `CCO.CCO.O=C([O-])c1ccc(C(=O)[O-])cc1.O=C([O-])c1ccc(C(=O)[O-])cc1.[Cu+2].[Cu+2].c1cnc2c(c1)ccc1cccnc12.c1cnc2c(c1)ccc1cccnc12.c1cnc2c(c1)ccc1cccnc12.c1cnc2c(c1)ccc1cccnc12` [compound 4, [{Cu(phen)2}2(terph)](terph).13.5H2O.2EtOH]: the values for the GM-MIC (in the data set with Candida duobushaemulonii (setting [3]); in data set [1] (setting [6]); in the data set with Candida haemulonii (setting [10])) were more than 32 µg/mL, 32 µg/mL and more than 32 µg/mL, respectively. Besides, the MIC in the data set on Candida duobushaemulonii (setting [2]) was more than 32 µg/mL; against Candida duobushaemulonii (setting [4]), more than 32 µg/mL; in the data set with Candida duobushaemulonii (setting [5]) it was more than 32 µg/mL; in data set [1] (setting [7]), 32 µg/mL; in data set [1] (setting [8]) it was 32 µg/mL; in data set [1] (setting [9]) it was 32 µg/mL. Moreover, the minimal inhibitory concentration (MIC) was more than 32 µg/mL against Candida haemulonii (setting [11]), more than 32 µg/mL in the data set on Candida haemulonii (setting [12]), more than 32 µg/mL in the data set with Candida haemulonii (setting [13]) and more than 21.92 µM in the data set on C. haemulonii complex (in μM). For the same molecule, the “Overall GM-MIC” value with C. haemulonii complex was more than 32 µg/mL. Moreover, the “A549 (CC50)” value with A549 cells (MTT, 48 h incubation) was 3.86 µg/mL.

A word on the MIC: it is the least concentration at which growth counts as inhibited.
